Measurements as given in US20230183237A1, “COMPETITIVE AND NONCOMPETITIVE INHIBITORS OF THE MUSCARINIC ACETYLCHOLINE RECEPTOR M5” (Vanderbilt University, priority 2020, published 2023).

molecular target: T1, hM5 (Homo sapiens, UniProt P08912); test: Calcium mobilization concentration-response (IC50 vs EC80 acetylcholine), CHO hM5; type: cell-based; settings: not given
T1 construct: expressed in transfected cells
T1 sequence (P08912 1-532): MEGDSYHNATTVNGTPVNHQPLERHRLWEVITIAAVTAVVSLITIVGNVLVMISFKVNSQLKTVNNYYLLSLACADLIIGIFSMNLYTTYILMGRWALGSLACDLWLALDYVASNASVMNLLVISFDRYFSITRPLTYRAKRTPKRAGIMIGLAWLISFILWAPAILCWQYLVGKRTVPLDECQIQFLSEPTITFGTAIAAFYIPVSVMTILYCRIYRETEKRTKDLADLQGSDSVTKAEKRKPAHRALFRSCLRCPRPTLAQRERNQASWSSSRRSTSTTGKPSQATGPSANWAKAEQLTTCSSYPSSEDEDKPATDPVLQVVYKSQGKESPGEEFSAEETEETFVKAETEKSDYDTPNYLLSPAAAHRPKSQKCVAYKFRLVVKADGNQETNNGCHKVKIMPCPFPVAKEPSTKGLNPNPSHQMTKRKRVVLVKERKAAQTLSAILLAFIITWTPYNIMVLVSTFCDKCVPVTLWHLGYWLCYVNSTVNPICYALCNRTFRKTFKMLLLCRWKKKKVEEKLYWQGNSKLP
Method: Initial, single point (10 μM) compound characterization was performed in stable Chinese Hamster Ovary (CHO) cell lines constitutively expressing human M5 receptors. These were plated at 15,000 cells per 20 μL per well in Greiner 384-well black-walled, TC-treated, clear-bottomed plates (Fisher) in Ham's F12 medium supplemented with 10% FBS and 20 mM HEPES. Cells were incubated overnight at 37° C. under 5% CO2. The following day, medium was exchanged with assay buffer (Hank's Balanced Salt Solution supplemented with 20 mM HEPES and 2.5 mM Probenecid, pH 7.4) leaving 20 μL of assay buffer in each well. […] The cells were then incubated 50 minutes at 37° C. under 5% CO2. The assay buffer plus dye was then exchanged with fresh assay buffer leaving a volume of 20 μL in each well. Test compounds were diluted into assay buffer to a 2X (20 μM) concentration in 0.2% dimethylsulfoxide (DMSO) in columns 3-22 with matching DMSO concentration in columns 1, 2, 23, and […]; compounds were added to the assay for a final concentration of 10 μM and a final DMSO concentration of 0.1%.
Either an FDSS (Hamamatsu) or Panoptic (WaveFront Biosciences) kinetic imaging plate reader was used for assay execution and measurement of calcium flux. After establishing baseline fluorescence, test compounds (20 μL) were added to the cells using the reader's integrated pipettor and allowed to equilibrate for 140 seconds before addition of the […] concentration of acetylcholine (10 μL) along with vehicle in selected DMSO-only wells in the outer two columns . […] The raw fluorescence data from each well was normalized to the corresponding initial fluorescence reading (static ratio). The maximum fluorescence value following each addition was determined and the minimum value within that same timeframe was subtracted for each well then normalized to the average of the ECffiax maximum-minimum response, providing a % AChmax value for each addition for each well. The single point values represent mean values determined within the ECsu addition timeframe obtained from at least three independent determinations performed in triplicate or greater (error bars represent +/−SEM) unless otherwise specified.
CHO cells stably expressing hM1, hM2/Gqi5, hM3, hM4/Gqi5, hM5, rM1/Gqi5, rM3, rM4/Gqi5, or rM5 were plated in the manner described above. […] FDSS protocols were carried out as described above; the static ratio was calculated and the minimum response subtracted from the maximum response within the timeframe of each addition. This max-min response was then normalized to the maximum acetylcholine response. Calculation of IC50 was performed using the percent maximum acetylcholine response for the EC80 addition through the Vortex and Studies modules of the Dotmatics data management software. Results are stored in the Dotrnatics database and an audit trail of any changes to their analysis is generated. Data shown represent mean values obtained from at least three independent determinations performed in triplicate or greater (error bars represent±SEM) unless otherwise specified.

Structure (SMILES) | IC50 [nM]
Cc1cc2ncnn2cc1C1CC2CCC(C1)N2S(=O)(=O)c1cnn2c1CCC2 (stereo not shown) [Compound 193, 6-(8-((5,6-dihydro-4H-pyrrolo[1,2-b]pyrazol-3-yl)sulfonyl)-8-azabicyclo[3.2.1]octan-3-yl)-7-methyl-[1,2,4]triazolo[1,5-a]pyridine] | 1600

same assay, conditions: CELL LINE hM5; calcium mobilization, EC80 acetylcholine addition; read-out: IC50

Structure (SMILES) | IC50 [nM]
Cc1cc2ncnn2cc1C1CCN(S(=O)(=O)c2c(C)n[nH]c2C)CC1 [Compound 157, 6-(1-((3,5-dimethyl-1H-pyrazol-4-yl)sulfonyl)piperidin-4-yl)-7-methyl-[1,2,4]triazolo[1,5-a]pyridine] | 2900
COc1cc2ncnn2cc1C1CCN(S(=O)(=O)c2cc3c(cc2C)OCC3C)CC1 (stereo not shown) [Compound 88, 6-(1-((3,6-dimethyl-2,3-dihydrobenzofuran-5-yl)sulfonyl)piperidin-4-yl)-7-methoxy-[1,2,4]triazolo[1,5-a]pyridine] | 804
Cc1cc2nccn2nc1C1CCN(S(=O)(=O)c2cc3c(cc2F)OCC3)CC1 [Compound 52, 6-(1-((6-fluoro-2,3-dihydrobenzofuran-5-yl)sulfonyl)piperidin-4-yl)-7-methylimidazo[1,2-b]pyridazine] | 5500
O=S(=O)(c1ccc2ncsc2c1)N1CCC(c2cc(-c3ccco3)n[nH]2)CC1 [Compound 6, 6-((4-(3-(furan-2-yl)-1H-pyrazol-5-yl)piperidin-1-yl)sulfonyl)benzo[d]thiazole] | > 10000
O=S(=O)(c1ccc2c(c1)CCO2)N1CC=C(c2cn3ncnc3cc2Cl)CC1 [Compound 139, 7-chloro-6-(1-((2,3-dihydrobenzofuran-5-yl)sulfonyl)-1,2,3,6-tetrahydropyridin-4-yl)-[1,2,4]triazolo[1,5-a]pyridine] | 149
Cc1cc(S(=O)(=O)N2CCC(c3cn4ncnc4cc3C(F)(F)F)CC2)c(C)s1 [Compound 280, 6-(1-((2,5-dimethylthiophen-3-yl)sulfonyl)piperidin-4-yl)-7-(trifluoromethyl)-[1,2,4]triazolo[1,5-a]pyridine] | 1900
Cc1cc2nccn2cc1C1CCN(S(=O)(=O)c2ccc3ncsc3c2)CC1 [Compound 68, 6-((4-(7-methylimidazo[1,2-a]pyridin-6-yl)piperidin-1-yl)sulfonyl)benzo[d]thiazole] | 6000
Cc1cc2ncnn2cc1C1CCN(S(=O)(=O)c2cnc3ccccn23)CC1 [Compound 323, 6-(1-(imidazo[1,2-a]pyridin-3-ylsulfonyl)piperidin-4-yl)-7-methyl-[1,2,4]triazolo[1,5-a]pyridine] | 16
Cn1cc(S(=O)(=O)N2CCC(c3cn4ncnc4cc3C(F)(F)F)CC2)c(C(F)(F)F)n1 [Compound 99, 6-(1-((1-methyl-3-(trifluoromethyl)-1H-pyrazol-4-yl)sulfonyl)piperidin-4-yl)-7-(trifluoromethyl)-[1,2,4]triazolo[1,5-a]pyridine] | 5200
O=S(=O)(c1cnc2ccccn12)N1CCC(c2cn3ncnc3cc2Cl)CC1 [Compound 342, 7-chloro-6-(1-(imidazo[1,2-a]pyridin-3-ylsulfonyl)piperidin-4-yl)-[1,2,4]triazolo[1,5-a]pyridine] | 15
Cc1cc2ncnn2cc1C1CCN(S(=O)(=O)c2cnc(Cl)c(C)c2)CC1 [Compound 57, 6-(1-((6-chloro-5-methylpyridin-3-yl)sulfonyl)piperidin-4-yl)-7-methyl-[1,2,4]triazolo[1,5-a]pyridine] | 1400
Cc1cc2nncn2cc1C1CCN(S(=O)(=O)c2ccc3c(c2)CCO3)CC1 [Compound 50, 6-(1-((2,3-dihydrobenzofuran-5-yl)sulfonyl)piperidin-4-yl)-7-methyl-[1,2,4]triazolo[4,3-a]pyridine] | > 10000
[2H]C1([2H])Oc2ccc(S(=O)(=O)N3CC=C(c4cn5ncnc5cc4C)CC3)cc2C1([2H])[2H] [Compound 72, 6-(1-((2,3-dihydrobenzofuran-5-yl-2,2,3,3-d4)sulfonyl)-1,2,3,6-tetrahydropyridin-4-yl)-7-methyl-[1,2,4]triazolo[1,5-a]pyridine] | 699

same assay, conditions: CELL LINE hM5; vs EC80 acetylcholine; read-out: IC50

Structure (SMILES) | IC50 [nM]
[2H]C1([2H])CC(c2cn3ncnc3cc2Cl)CC([2H])([2H])N1S(=O)(=O)c1nncn1C [Compound 580, 7-chloro-6-(1-((4-methyl-4H-1,2,4-triazol-3-yl)sulfonyl)piperidin-4-yl-2,2,6,6-d4)-[1,2,4]triazolo[1,5-a]pyridine] | 98
Cc1cc2ncccc2cc1C1CCN(S(=O)(=O)c2cnn3c2OCCC3)CC1 [Compound 446, 3-((4-(7-methylquinolin-6-yl)piperidin-1-yl)sulfonyl)-6,7-dihydro-5H-pyrazolo[5,1-b][1,3]oxazine] | 28
Cn1ncc(S(=O)(=O)N2CCC(c3cn4ncnc4cc3F)CC2)c1C#N [Compound 402, 4-((4-(7-fluoro-[1,2,4]triazolo[1,5-a]pyridin-6-yl)piperidin-1-yl)sulfonyl)-1-methyl-1H-pyrazole-5-carbonitrile] | 85
Cc1ncc(S(=O)(=O)N2CCC(c3cn4ccnc4cc3C)CC2)o1 [Compound 582, 2-methyl-5-((4-(7-methylimidazo[1,2-a]pyridin-6-yl)piperidin-1-yl)sulfonyl)oxazole] | 831
[2H]C([2H])([2H])OCc1c(S(=O)(=O)N2CCC(c3cn4ncnc4cc3C)CC2)cnn1C [Compound 440, 6-(1-((5-((methoxy-d3)methyl)-1-methyl-1H-pyrazol-4-yl)sulfonyl)piperidin-4-yl)-7-methyl-[1,2,4]triazolo[1,5-a]pyridine] | 4960
Cc1cc2ncnn2cc1C1CCN(S(=O)(=O)c2cnn(C)c2CN2Cc3ncccc3C2=O)CC1 [Compound 597, 6-((1-Methyl-4-((4-(7-methyl-[1,2,4]triazolo[1,5-a]pyridin-6-yl)piperidin-1-yl)sulfonyl)-1H-pyrazol-5-yl)methyl)-6,7-dihydro-5H-pyrrolo[3,4-b]pyridin-5-one] | > 10000
COc1nn(C)c(I)c1S(=O)(=O)N1CCC(c2cn3ncnc3cc2Cl)CC1 (single isomer, unassigned) [Compound 626, 7-chloro-6-(1-((5-iodo-3-methoxy-1-methyl-1H-pyrazol-4-yl)sulfonyl)piperidin-4-yl)-[1,2,4]triazolo[1,5-a]pyridine] | 37
[2H]C([2H])([2H])OCc1c(S(=O)(=O)N2CCC(c3cn4ncnc4cc3F)CC2)cnn1C [Compound 441, 7-fluoro-6-(1-((5-((methoxy-d3)methyl)-1-methyl-1H-pyrazol-4-yl)sulfonyl)piperidin-4-yl)-[1,2,4]triazolo[1,5-a]pyridine] | > 10000
Cc1cc2ncnn2nc1C1CCN(S(=O)(=O)c2cnc3sccn23)CC1 [Compound 535, 5-((4-(7-methyl-[1,2,4]triazolo[1,5-b]pyridazin-6-yl)piperidin-1-yl)sulfonyl)imidazo[2,1-b]thiazole] | 133
CO[C@@H]1CN(S(=O)(=O)c2cnn(C)c2Cl)CC[C@H]1c1cn2ncnc2cc1C (racemic) [Compound 413, (rac)-6-(trans-1-((5-chloro-1-methyl-1H-pyrazol-4-yl)sulfonyl)-3-methoxypiperidin-4-yl)-7-methyl-[1,2,4]triazolo[1,5-a]pyridine] | 268
Cc1cc2nccnc2cc1C1CCN(S(=O)(=O)c2cnn(C)c2Cl)CC1 [Compound 424, 6-(1-((5-chloro-1-methyl-1H-pyrazol-4-yl)sulfonyl)piperidin-4-yl)-7-methylquinoxaline] | 55
